# System: LNCaP cells
# Assay: LNCaP cell viability assay (MTS)
# Assay type: cell-based
# Settings: Homo sapiens, LNCaP, 48 h, LNCaP cell line
# In short: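 GI50 derived by nonlinear four-parameter curve fitting (bottom fixed at zero) of MTS viability data. Prostate LNCaP cells seeded at 5000/well were given compound doses from 1 to 80 µM one day after plating and assayed after 48 h of exposure.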
row,SMILES,GI50
1,"CC1CCN(C(CNS(=O)(=O)c2ccc(OC(F)(F)F)cc2)c2ccco2)CC1 (centres unmarked) [Compound 31, N-(2-(furan-2-yl)-2-(4-methylpiperidin-1-yl)ethyl)-4-(trifluoromethoxy)benzenesulfonamide]",45.9 µM
2,"CCOC(=O)C(NS(=O)(=O)c1ccc(OC(F)(F)F)cc1)c1ccc(OC)c(Br)c1 (centres unmarked) [Compound 16, Ethyl 2-(3-bromo-4-methoxyphenyl)-2-((4-(trifluoromethoxy)phenyl)sulfonamido)acetate]",49.7 µM
3,CCOC(=O)CC(NS(=O)(=O)c1ccc(OC(F)(F)F)cc1)c1ccc(C)cc1 (centres unmarked) [Compound 24],44.2 µM
4,"O=S(=O)(NCCCN(Cc1ccco1)CC1CCCO1)c1ccc(OC(F)(F)F)cc1 (centres unmarked) [Compound 79, N-(3-((furan-2-ylmethyl)((tetrahydrofuran-2-yl)methyl)amino)propyl)-4-(trifluoromethoxy)benzenesulfonamide]",49 µM
5,"CN(C)CC(NS(=O)(=O)c1ccc(OC2CCC2)cc1)c1ccc(Cl)c(Cl)c1 (centres unmarked) [Compound 248, 4-cyclobutoxy-N-(1-(3,4-dichlorophenyl)-2-(dimethylamino)ethyl)benzenesulfonamide]",16.4 µM
6,"O=S(=O)(NC(Cc1cccc(Br)c1)CC(F)(F)F)c1ccc(OC(F)(F)F)cc1 (centres unmarked) [Compound 44, N-(1-(3-bromophenyl)-4,4,4-trifluorobutan-2-yl)-4-(trifluoromethoxy)benzenesulfonamide]",59 µM
7,"CCOC(=O)C(CC1CC=CCC1)NS(=O)(=O)c1ccc(OC(F)(F)F)cc1 (centres unmarked) [Compound 13, Ethyl 3-(cyclohex-3-en-1-yl)-2-((4-(trifluoromethoxy)phenyl)sulfonamido)propanoate]",53.5 µM
8,"O=S(=O)(NCC1(c2ccc(Cl)cc2)CCCC1)c1ccc(OC(F)(F)F)cc1 [Compound 244, N-((1-(4-chlorophenyl)cyclopentyl)methyl)-4-(trifluoromethoxy)benzenesulfonamide]",56.1 µM
9,"COC(=O)C(Cc1ccccc1O)NS(=O)(=O)c1ccc(OC(F)(F)F)cc1 (centres unmarked) [Compound 111, Methyl 3-(2-hydroxyphenyl)-2-((4-(trifluoromethoxy)phenyl)sulfonamido)propanoate]",50 µM
10,"CNS(=O)(=NC(CN(C)C)c1ccc(Cl)c(Cl)c1)c1ccc(OC(F)(F)F)cc1 (centres unmarked) [Compound 127, N′-(1-(3,4-dichlorophenyl)-2-(dimethylamino)ethyl)-N-methyl-4-(trifluoromethoxy)benzenesulfonimidamide]",51.9 µM
11,"O=S(=O)(NCCNS(=O)(=O)c1ccc(Cl)cc1F)c1ccc(OC(F)(F)F)cc1 [Compound 97, 4-chloro-2-fluoro-N-(2-((4-(trifluoromethoxy)phenyl)sulfonamido)ethyl)benzenesulfonamide]",41 µM
12,"CN(C)CC(NS(=O)(=O)c1ccc(F)cc1)c1ccc(Cl)c(Cl)c1 (centres unmarked) [Compound 130, N-(1-(3,4-dichlorophenyl)-2-(dimethylamino)ethyl)-4-fluorobenzenesulfonamide]",62.4 µM
13,"O=S(=O)(NCC1(c2ccc(Cl)cc2)CCC1)c1ccc(OC(F)(F)F)cc1 [Compound 229, N-((1-(4-chlorophenyl)cyclobutyl)methyl)-4-(trifluoromethoxy)benzenesulfonamide]",42.5 µM
14,"NC[C@H](NS(=O)(=O)c1ccc(OC(F)(F)F)cc1)c1ccccc1 [Compound 116, (R)—N-(2-amino-1-phenylethyl)-4-(trifluoromethoxy)benzenesulfonamide]",51.2 µM

# Second part, the compound after the results:
row,GI50,SMILES
1,15.9 µM,"CC(C)(C)OC(=O)NCC(NS(=O)(=O)c1ccc(OC(F)(F)F)cc1)c1ccc(Cl)c(Cl)c1 (centres unmarked) [Compound 224, tert-butyl (2-(3,4-dichlorophenyl)-2-((4-(trifluoromethoxy)phenyl)sulfonamido)ethyl)carbamate]"
2,19.3 µM,"CN(C)CC(NS(=O)(=O)c1cccc(-c2ccccc2)c1)c1ccc(Cl)c(Cl)c1 (single isomer, unassigned) [Compound 197, N-(1-(3,4-dichlorophenyl)-2-(dimethylamino)ethyl)-[1,1′-biphenyl]-3-sulfonamide]"
3,24 µM,"COc1ccc([C@@H]2[C@@H](CNS(=O)(=O)c3ccc(OC(F)(F)F)cc3)CCN2C)cc1 (racemic) [Compound 106, Rac-N-(((2S,3R)-2-(4-methoxyphenyl)-1-methylpyrrolidin-3-yl)methyl)-4-(trifluoromethoxy)benzenesulfonamide]"
4,16.5 µM,"CN(C)CC(NS(=O)(=O)c1ccc(OC(F)(F)F)c(Cl)c1)c1cccc(C(F)(F)F)c1 (centres unmarked) [Compound 191, 3-chloro-N-(2-(dimethylamino)-1-(3-(trifluoromethyl)phenyl)ethyl)-4-(trifluoromethoxy)benzenesulfonamide]"
5,19 µM,"O=S(=O)(NC(c1cc(Cl)cc(Cl)c1)C1CCCCC1)c1ccc(OC(F)(F)F)cc1 (single isomer, unassigned) [Compound 140, N-(cyclohexyl(3,5-dichlorophenyl)methyl)-4-(trifluoromethoxy)benzenesulfonamide]"
6,23.8 µM,"CN(C)CC(NS(=O)(=O)c1ccc2ccccc2c1)c1ccc(Cl)c(Cl)c1 (centres unmarked) [Compound 146, N-(1-(3,4-dichlorophenyl)-2-(dimethylamino)ethyl)naphthalene-2-sulfonamide]"
7,20 µM,"CC(C)N(C)c1ccccc1CNS(=O)(=O)c1ccc(OC(F)(F)F)cc1 [Compound 58, N-(2-(isopropyl(methyl)amino)benzyl)-4-(trifluoromethoxy)benzenesulfonamide]"
8,11.3 µM,"CCCCc1ccc(S(=O)(=O)NC(CN(C)C)c2ccc(Cl)c(Cl)c2)cc1 (centres unmarked) [Compound 214, 4-butyl-N-(1-(3,4-dichlorophenyl)-2-(dimethylamino)ethyl)benzenesulfonamide]"
9,2.27 µM,"CN(C)CC(NS(=O)(=O)c1ccc(OC(F)(F)F)c([N+](=O)[O-])c1)c1cccc(C(F)(F)F)c1 (centres unmarked) [Compound 205, N-(2-(dimethylamino)-1-(3-(trifluoromethyl)phenyl)ethyl)-3-nitro-4-(trifluoromethoxy)benzenesulfonamide]"
10,38.5 µM,"CN(C)C(=O)C(NS(=O)(=O)c1ccc(OC(F)(F)F)cc1)c1ccc(Cl)c(Cl)c1 (centres unmarked) [Compound 255, 2-(3,4-dichlorophenyl)-N,N-dimethyl-2-((4-(trifluoromethoxy)phenyl)sulfonamido)acetamide]"
11,22.4 µM,"CN(C)CC(NS(=O)(=O)c1ccc(NC2CCCC2)cc1)c1ccc(Cl)c(Cl)c1 (centres unmarked) [Compound 251, 4-(cyclopentylamino)-N-(1-(3,4-dichlorophenyl)-2-(dimethylamino)ethyl)benzenesulfonamide]"
12,7.5 µM,"CCCCCc1ccc(S(=O)(=O)NC(CN(C)C)c2ccc(Cl)c(Cl)c2)cc1 (centres unmarked) [Compound 215, N-(1-(3,4-dichlorophenyl)-2-(dimethylamino)ethyl)-4-pentylbenzenesulfonamide]"
13,20 µM,"C=CCCC(NS(=O)(=O)c1ccc(OC(F)(F)F)cc1)c1ccc(C(F)(F)F)cc1 (centres unmarked) [Compound 71, 4-(trifluoromethoxy)-N-(1-(4-(trifluoromethyl)phenyl)pent-4-en-1-yl)benzenesulfonamide]"
14,24.3 µM,"CN(C)CC(NS(=O)(=O)CCc1ccccc1)c1ccc(Cl)c(Cl)c1 (centres unmarked) [Compound 136, N-(1-(3,4-dichlorophenyl)-2-(dimethylamino)ethyl)-2-phenylethane-1-sulfonamide]"
15,23.6 µM,"CN(C)CC(NS(=O)(=O)c1ccc(OC(F)(F)F)cc1Cl)c1ccc(Cl)c(Cl)c1 (centres unmarked) [Compound 151, 2-chloro-N-(1-(3,4-dichlorophenyl)-2-(dimethylamino)ethyl)-4-(trifluoromethoxy)benzenesulfonamide]"
16,38 µM,"O=S(=O)(NCC1(c2cccc(C(F)(F)F)c2)CCC1)c1ccc(OC(F)(F)F)cc1 [Compound 57, 4-(trifluoromethoxy)-N-((1-(3-(trifluoromethyl)phenyl)cyclobutyl)methyl)benzenesulfonamide]"
17,6.84 µM,"O=S(=O)(NC(CN1CCNCC1)c1ccc(Cl)c(Cl)c1)c1ccc(OC(F)(F)F)cc1 (centres unmarked) [Compound 237, N-(1-(3,4-dichlorophenyl)-2-(piperazin-1-yl)ethyl)-4-(trifluoromethoxy)benzenesulfonamide]"
18,35 µM,"CC[C@H](NS(=O)(=O)c1ccc(OC(F)(F)F)cc1)c1cc(F)ccc1F [Compound 66, (S)—N-(1-(2,5-difluorophenyl)propyl)-4-(trifluoromethoxy)benzenesulfonamide]"
19,38 µM,"CCC[C@@H](NS(=O)(=O)c1ccc(OC(F)(F)F)cc1)c1ccc2c(c1)OCO2 [Compound 73, (R)—N-(1-(benzo[d][1,3]dioxol-5-yl)butyl)-4-(trifluoromethoxy)benzenesulfonamide]"
20,33.6 µM,"O=S(=O)(NCC1(c2ccccc2)CCNCC1)c1ccc(OC(F)(F)F)cc1 [Compound 260, N-((4-phenylpiperidin-4-yl)methyl)-4-(trifluoromethoxy)benzenesulfonamide]"
21,11.3 µM,"O=S(=O)(NC(CN1CCNCC1)c1ccc(Cl)c(F)c1)c1ccc(OC(F)(F)F)cc1 (centres unmarked) [Compound 258, N-(1-(4-chloro-3-fluorophenyl)-2-(piperazin-1-yl)ethyl)-4-(trifluoromethoxy)benzenesulfonamide]"
22,12.1 µM,"CN(C)CC(NS(=O)(=O)c1ccc(Oc2ccccc2)cc1)c1cccc(C(F)(F)F)c1 (centres unmarked) [Compound 189, N-(2-(dimethylamino)-1-(3-(trifluoromethyl)phenyl)ethyl)-4-phenoxybenzenesulfonamide]"

# Same assay, conditions: LNCaP cell line, 48 hours
row,GI50,SMILES
1,24.9 µM,"CN(C)CC(NS(=O)(=O)c1ccc(OC(F)(F)F)cc1)c1cccc(C(F)(F)F)c1 (single isomer, unassigned) [Compound 177, N-(2-(dimethylamino)-1-(3-(trifluoromethyl)phenyl)ethyl)-4-(trifluoromethoxy)benzenesulfonamide]"
2,21.6 µM,"CN(C)CC(NS(=O)(=O)c1ccc(OC(F)(F)F)c(Cl)c1)c1ccc(Cl)c(Cl)c1 (single isomer, unassigned) [Compound 202, 3-chloro-N-(1-(3,4-dichlorophenyl)-2-(dimethylamino)ethyl)-4-(trifluoromethoxy)benzenesulfonamide]"

# Reference: patent US20240174603A1 (Rappta Therapeutics Oy, priority 2021, published 2024)
